The values that follow come from paper PMC5956890 (Journal of medicinal chemistry, 2017).

SMILES strings stand for the structures. “Also recorded” adds a separate entry of the source. Bounds are passed on as bounds.

In test [1] the target is T1, PPARδ (Homo sapiens, UniProt Q03181).
T1 sequence (Q03181 1-441): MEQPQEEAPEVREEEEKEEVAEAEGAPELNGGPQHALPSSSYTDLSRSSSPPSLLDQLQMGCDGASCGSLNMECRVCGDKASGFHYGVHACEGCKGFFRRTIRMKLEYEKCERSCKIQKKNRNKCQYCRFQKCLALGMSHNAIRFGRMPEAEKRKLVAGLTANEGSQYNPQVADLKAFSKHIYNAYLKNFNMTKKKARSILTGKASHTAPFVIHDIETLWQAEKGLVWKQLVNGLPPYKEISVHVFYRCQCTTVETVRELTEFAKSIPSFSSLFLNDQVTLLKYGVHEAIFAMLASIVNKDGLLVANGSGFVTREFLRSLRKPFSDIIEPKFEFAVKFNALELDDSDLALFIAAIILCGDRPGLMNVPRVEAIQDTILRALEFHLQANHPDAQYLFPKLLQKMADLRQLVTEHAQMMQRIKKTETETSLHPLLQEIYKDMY
Kind of test: TR-FRET competitive binding assay PPARδ. The note with it: concentration-response. For orientation: TR-FRET usually uses a lanthanide donor and a delayed reading to cut background.

For another test, the system named is hA1AR. The note with it: cited from earlier work.
Another test concerns hA2AAR. The note with it: cited from earlier work.
The next test concerns the target T2, PPARγ (Homo sapiens, UniProt P37231).
T2 sequence (P37231 235-505 limits assumed): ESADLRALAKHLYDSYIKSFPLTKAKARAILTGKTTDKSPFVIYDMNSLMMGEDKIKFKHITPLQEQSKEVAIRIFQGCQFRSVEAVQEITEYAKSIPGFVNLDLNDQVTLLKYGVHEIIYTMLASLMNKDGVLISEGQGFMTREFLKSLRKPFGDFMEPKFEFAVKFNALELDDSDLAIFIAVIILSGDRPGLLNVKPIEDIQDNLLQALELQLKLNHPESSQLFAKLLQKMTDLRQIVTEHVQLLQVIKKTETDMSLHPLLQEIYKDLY
The test is described as follows: TR-FRET competitive binding assay PPARγ. The note with it: concentration-response.

The next test deals with T3, GR (Homo sapiens, UniProt P04150).
T3 sequence (P04150 1-777): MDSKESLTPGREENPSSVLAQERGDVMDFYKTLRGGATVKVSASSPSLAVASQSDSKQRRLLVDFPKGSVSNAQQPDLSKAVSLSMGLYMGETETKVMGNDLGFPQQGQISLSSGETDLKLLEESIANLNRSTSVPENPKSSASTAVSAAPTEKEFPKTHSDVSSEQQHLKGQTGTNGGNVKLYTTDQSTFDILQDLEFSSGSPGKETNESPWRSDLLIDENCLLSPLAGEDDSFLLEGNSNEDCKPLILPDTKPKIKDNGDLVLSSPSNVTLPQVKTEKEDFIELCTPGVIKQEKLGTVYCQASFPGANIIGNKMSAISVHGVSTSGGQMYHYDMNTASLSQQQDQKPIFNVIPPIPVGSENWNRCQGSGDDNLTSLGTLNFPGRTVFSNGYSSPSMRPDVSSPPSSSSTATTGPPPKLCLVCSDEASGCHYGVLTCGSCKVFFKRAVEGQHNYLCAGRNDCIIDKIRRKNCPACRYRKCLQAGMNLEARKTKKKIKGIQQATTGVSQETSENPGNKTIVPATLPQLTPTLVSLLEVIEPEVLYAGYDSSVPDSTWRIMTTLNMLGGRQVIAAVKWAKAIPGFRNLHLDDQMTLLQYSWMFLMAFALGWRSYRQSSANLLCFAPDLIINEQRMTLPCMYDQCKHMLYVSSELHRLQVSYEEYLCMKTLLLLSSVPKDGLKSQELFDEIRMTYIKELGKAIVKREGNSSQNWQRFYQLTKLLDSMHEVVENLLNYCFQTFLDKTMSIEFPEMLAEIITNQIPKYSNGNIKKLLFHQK
The test is described as follows: TR-FRET competitive binding assay GR. The note with it: 4 µM, compared to dexamethasone.

For another test, the target named is CDK5/p35 (Homo sapiens, UniProt Q00535). The test is described as follows: KinaseProfiler kinase assay CDK5/p35. The class given is biochemical. The note with it: up to 20 µM, Km ATP.
The target in a further test is T4, LXRα (Homo sapiens, UniProt Q13133).
T4 sequence (Q13133 1-447): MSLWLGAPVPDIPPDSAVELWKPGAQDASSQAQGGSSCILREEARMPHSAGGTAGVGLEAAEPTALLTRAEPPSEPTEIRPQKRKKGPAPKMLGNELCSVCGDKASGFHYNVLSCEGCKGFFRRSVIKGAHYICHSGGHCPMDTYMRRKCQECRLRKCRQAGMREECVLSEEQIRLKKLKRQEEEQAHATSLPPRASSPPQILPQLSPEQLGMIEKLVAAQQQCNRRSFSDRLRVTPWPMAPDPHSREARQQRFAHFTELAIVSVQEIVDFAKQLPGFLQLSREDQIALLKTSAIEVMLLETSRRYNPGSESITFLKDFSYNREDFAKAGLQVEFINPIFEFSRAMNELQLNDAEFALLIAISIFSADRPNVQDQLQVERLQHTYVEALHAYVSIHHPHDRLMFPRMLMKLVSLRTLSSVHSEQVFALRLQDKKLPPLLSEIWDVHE
Kind of test: TR-FRET LXRα coactivator assay. The format is biochemical. The note with it: 4 µM, compared to positive control 20.

In another test the target is CDK5/p25 (Homo sapiens, UniProt Q00535). Kind of test: KinaseProfiler kinase assay CDK5/p25. The class given is biochemical. The note with it: up to 20 µM, Km ATP.
A further test concerns the target T5, LXRβ (Homo sapiens, UniProt P55055).
T5 sequence (P55055 1-460): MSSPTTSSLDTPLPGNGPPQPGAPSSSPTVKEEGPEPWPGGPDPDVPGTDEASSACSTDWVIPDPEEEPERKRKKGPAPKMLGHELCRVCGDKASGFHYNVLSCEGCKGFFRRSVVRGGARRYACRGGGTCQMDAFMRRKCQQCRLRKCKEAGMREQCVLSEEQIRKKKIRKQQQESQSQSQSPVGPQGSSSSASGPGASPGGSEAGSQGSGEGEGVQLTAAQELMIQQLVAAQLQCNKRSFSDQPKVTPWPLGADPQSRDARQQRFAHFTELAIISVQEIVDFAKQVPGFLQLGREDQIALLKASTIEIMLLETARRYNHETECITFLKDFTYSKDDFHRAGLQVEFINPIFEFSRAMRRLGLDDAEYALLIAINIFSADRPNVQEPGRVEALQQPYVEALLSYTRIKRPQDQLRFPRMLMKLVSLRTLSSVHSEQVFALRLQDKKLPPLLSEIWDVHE
The test is described as follows: TR-FRET LXRβ coactivator assay. The class given is biochemical. The note with it: 4 µM, compared to positive control 20.

The target of another test is T6, PPARα (Homo sapiens, UniProt Q07869).
T6 sequence (Q07869 200-468 limits assumed): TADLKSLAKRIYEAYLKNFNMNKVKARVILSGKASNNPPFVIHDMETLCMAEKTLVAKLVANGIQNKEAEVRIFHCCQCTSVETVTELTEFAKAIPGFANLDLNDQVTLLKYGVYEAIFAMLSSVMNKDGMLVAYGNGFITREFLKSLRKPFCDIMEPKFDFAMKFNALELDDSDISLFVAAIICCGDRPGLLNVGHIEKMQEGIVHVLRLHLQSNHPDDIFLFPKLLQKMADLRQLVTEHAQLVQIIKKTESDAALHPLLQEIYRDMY
The test is described as follows: TR-FRET competitive binding assay PPARα. The note with it: for effect on PPARα binding: 4 µM, compared to positive control 19; for replacement of labeled PPARα ligand binding: up to 20 µM.

Test [2] deals with STZ-induced diabetic C57BL/6J mice. The test is described as follows: STZ-induced diabetes mouse model. The class given is in vivo. The note with it: oral 20 mg/kg for 5 days, male C57BL/6J.
Test [3] has as its system hBM-MSCs. The test is described as follows: Oil Red O staining of lipid droplets in hBM-MSCs. The note with it: compared with IDX control, 7th day. The class given is cell-based, human.
Test [4] deals with hBM-MSCs. The test is described as follows: adiponectin production during adipogenesis in hBM-MSCs. The note with it: compared to IDX control.
For test [5], the target named is T7, PPARδ (Homo sapiens, UniProt Q03181).
T7 sequence (Q03181 211-439 limits assumed): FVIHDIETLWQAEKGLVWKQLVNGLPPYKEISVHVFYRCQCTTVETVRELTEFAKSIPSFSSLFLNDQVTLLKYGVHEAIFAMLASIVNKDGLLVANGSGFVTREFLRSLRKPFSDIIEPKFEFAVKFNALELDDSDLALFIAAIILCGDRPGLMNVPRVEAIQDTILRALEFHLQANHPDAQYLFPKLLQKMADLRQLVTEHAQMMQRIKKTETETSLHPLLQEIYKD
Kind of test: TR-FRET PPARδ coactivator assay. The class given is biochemical. The note with it: compound alone.

Chain of CDK5/p25 (Q00535 whole entry): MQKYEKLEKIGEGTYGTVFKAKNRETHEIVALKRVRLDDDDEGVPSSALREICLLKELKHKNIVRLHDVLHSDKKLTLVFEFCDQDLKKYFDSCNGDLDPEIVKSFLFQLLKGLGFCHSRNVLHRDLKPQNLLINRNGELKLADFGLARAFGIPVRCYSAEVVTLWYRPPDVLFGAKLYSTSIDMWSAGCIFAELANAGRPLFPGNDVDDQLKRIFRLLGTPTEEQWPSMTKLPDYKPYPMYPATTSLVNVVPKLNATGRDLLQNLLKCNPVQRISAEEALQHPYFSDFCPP
Chain of CDK5/p25 (Q15078 99-307 partner limits assumed): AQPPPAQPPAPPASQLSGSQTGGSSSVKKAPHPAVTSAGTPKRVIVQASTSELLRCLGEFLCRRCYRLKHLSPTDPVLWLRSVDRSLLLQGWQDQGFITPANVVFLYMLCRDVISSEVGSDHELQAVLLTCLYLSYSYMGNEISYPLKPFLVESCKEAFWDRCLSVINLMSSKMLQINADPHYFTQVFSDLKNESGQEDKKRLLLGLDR
Chain of CDK5/p35 (Q00535 whole entry): as the sequence (Q00535 whole entry) above
Chain of CDK5/p35 (Q15078 2-307 partner limits assumed): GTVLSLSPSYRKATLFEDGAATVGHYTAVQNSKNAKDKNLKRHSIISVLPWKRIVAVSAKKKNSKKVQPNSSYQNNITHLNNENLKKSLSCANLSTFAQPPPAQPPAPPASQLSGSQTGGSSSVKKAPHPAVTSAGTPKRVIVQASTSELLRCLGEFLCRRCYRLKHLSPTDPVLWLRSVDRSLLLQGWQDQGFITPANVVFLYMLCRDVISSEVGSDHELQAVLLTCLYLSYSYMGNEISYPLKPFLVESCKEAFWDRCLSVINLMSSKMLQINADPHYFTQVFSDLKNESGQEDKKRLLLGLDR

Regarding `O[C@@H]1[C@H](O)CS[C@H]1n1cnc2c(NCc3cccc(Cl)c3)nc(Cl)nc21` [Compound 3b, (2R,3R,4S)-2-(2-Chloro-6-((3-chlorobenzyl)amino)-9H-purin-9-yl)tetrahydrothiophene-3,4-diol], at PPARδ [1], the “PPARδ binding activity” value was “maximal PPARδ binding activity”. The “% displacement at 1 µM (hA1AR)” value with hA1AR is 38%. In the test on hA2AAR (1 µM), the “% displacement at 1 µM (hA2AAR)” value is listed as 18%.
In the case of `CNC(=O)[C@H]1O[C@@H](n2cnc3c(NCc4cccc(I)c4)nc(Cl)nc32)[C@H](O)[C@@H]1O` [Compound 1b], at PPARγ, the “PPARγ binding activity” value is listed as “significant competitive binding activity”. Besides, the “effect on GR binding” value on GR was “no significant effects”. For the same compound, the “effect on CDK5/p35 kinase activity” value at CDK5/p35 is given as “Neither 1a nor 1b affected CDK activity”. Moreover, on LXRα, the “effect on LXRα coactivation” value is recorded as “no significant effects”. At CDK5/p25, the “effect on CDK5/p25 kinase activity” value is reported as “Neither 1a nor 1b affected CDK activity”. For the same compound, at LXRβ, the “effect on LXRβ coactivation” value is recorded as “no significant effects”. Besides, at PPARα, the “effect on PPARα binding” value is listed as “no significant effects” and the “replacement of labeled PPARα ligand binding” value is recorded as at most 50%.
The term Ki denotes the dissociation constant of the complex between target and ligand, obtained from inhibition or displacement. `O=C(NC1CC1)[C@H]1S[C@@H](n2cnc3c(NCc4cccc(I)c4)ncnc32)[C@H](O)[C@@H]1O` [Compound 2b, (2S,3S,4R,5R)-N-Cyclopropyl-3,4-dihydroxy-5-(6-((3-iodobenzyl)amino)-9H-purin-9-yl)tetrahydrothiophene-2-carboxamide]: on hA2AAR (read-out: Ki (hA2AAR)), the Ki was 15.2 ± 2.6 nM.
As for `CNC(=O)[C@H]1O[C@@H](n2cnc3c(NCc4cccc(I)c4)ncnc32)[C@H](O)[C@@H]1O` [Compound 1a, N^6-(3-iodobenzyl)adenosine-5′-N-methyluronamide], the “serum triglyceride levels” value in test [2] is “downregulated serum triglyceride levels”. Moreover, the “serum glucose levels” value in test [2] (20 mg/kg) was “tended to decrease serum glucose levels”. Moreover, the “effect on GR binding” value at GR is given as “no significant effects”. For the same compound, in the test with hBM-MSCs [3], the “lipid droplets in differentiated adipocytes (ORO staining)” value is “increased the number and size of lipid droplets”. In addition, the “effect on CDK5/p35 kinase activity” value on CDK5/p35 is on record as “Neither 1a nor 1b affected CDK activity”. The “effect on LXRα coactivation” value at LXRα is given as “no significant effects”. For the same compound, the “effect on CDK5/p25 kinase activity” value on CDK5/p25 is recorded as “Neither 1a nor 1b affected CDK activity”. At LXRβ, the “effect on LXRβ coactivation” value is given as “no significant effects”. On PPARα, the “effect on PPARα binding” value is “no significant effects” and the “replacement of labeled PPARα ligand binding” value is listed as at most 50%. Besides, the “adiponectin production during adipogenesis” value in the test on hBM-MSCs [4] is “significantly promoted adiponectin production; also recorded: upregulated adiponectin production during adipogenesis in hBM-MSCs in a concentration-dependent manner”. The “recruitment of labeled coactivator peptide to PPARδ” value at PPARδ [5] is recorded as “no effect on the recruitment of the labeled coactivator peptide”.
As for `O[C@@H]1[C@H](O)CS[C@H]1n1cnc2c(NCc3ccccc3Cl)nc(Cl)nc21` [Compound 3c, (2R,3R,4S)-2-(2-Chloro-6-((2-chlorobenzyl)amino)-9H-purin-9-yl)tetrahydrothiophene-3,4-diol], the “% displacement at 1 µM (hA1AR)” value with hA1AR is 13%.
